According to US20260325533A1, “CDK INHIBITOR COMPOUNDS” (ALEKSIA THERAPEUTICS, INC., priority 2023, published 2026):
Read-outs that look alike come from different tables or passages of the source.

Key:
Type in all cases: biochemical
CDK4/CCND3 = CDK4/CCND3 (Homo sapiens, UniProt P11802); assay: CDK4 homogeneous time-resolved fluorescence (HTRF) kinase assay; conditions: CDK4/CCND; x = IC50 >250 nM; read-out: CDK4/CCND IC50 (>250 nM column)
Method in brief: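 TR-FRET read (665 nm, or 665/615 ratio) of 4E-BP1 Thr37/46 phosphorylation by 1.5 nM CDK4/CCND3 at 1 mM ATP, 50 nM ULight peptide, 1% DMSO. Reaction ran 60 min at 23 °C after 20 min compound–enzyme preincubation. IC50 from 11-point half-log dilutions, top 10 μM.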

CDK1/CCNB1 = CDK1/CCNB1 (Homo sapiens, UniProt P06493); assay: CDK1 homogeneous time-resolved fluorescence (HTRF) kinase assay; conditions: CDK1/CCNB; x = IC50 >250 nM; read-out: CDK1/CCNB IC50 (>250 nM column)
Method in brief: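 Compounds, titrated 11 points in half-log steps typically from 10 μM, were incubated with enzyme for 20 min before ATP (1 mM) and ULight-labelled eIF4E-binding protein 1 peptide (50 nM) started a 60-min reaction at 23 °C. Phosphopeptide was detected by europium-antibody TR-FRET and IC50 values were derived.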

CDK2/CCNE1 = CDK2/CCNE1 (Homo sapiens, UniProt P24941); assay: CDK2 homogeneous time-resolved fluorescence (HTRF) kinase assay; conditions: CDK2/CCNE
Method in brief: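 TR-FRET read-out (665 nm, or 665/615 ratio) of Eu-antibody detection of phospho-4E-BP1 (Thr37/46) ULight peptide. Enzyme 3 nM, ATP 1 mM, peptide 50 nM, 1% DMSO; 60 min reaction at 23 °C after 20 min compound preincubation. IC50 from 11-point half-log titrations, top typically 10 μM.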

CDK6/CCND1 = CDK6/CCND1 (Homo sapiens, UniProt Q00534); assay: CDK6 homogeneous time-resolved fluorescence (HTRF) kinase assay; conditions: CDK6/CCND
Method in brief: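 Assay conditions: HEPES buffer containing 10 mM MgCl2, 1 mM EGTA, 2 mM DTT, 0.01% Tween 20; 1 nM CDK6/CCND1, 50 nM peptide substrate, 1 mM ATP. Detection after 60 min reaction used 2 nM europium antibody with 340 nm excitation. Potency fitted from half-log series, 11 points.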

[1] = x = IC50 25-250 nM, read-out: CDK2/CCNE IC50 (25-250 nM)
[2] = x = IC50 >250 nM, read-out: CDK6/CCND IC50 (>250 nM column)
[3] = x = IC50 >250 nM, read-out: CDK2/CCNE IC50 (>250 nM column)
[4] = x = IC50 <25 nM, read-out: CDK2/CCNE IC50 (<25 nM)
[5] = x = IC50 25-250 nM, read-out: CDK6/CCND IC50 (25-250 nM)

Chain of CDK6/CCND1 (Q00534 whole entry): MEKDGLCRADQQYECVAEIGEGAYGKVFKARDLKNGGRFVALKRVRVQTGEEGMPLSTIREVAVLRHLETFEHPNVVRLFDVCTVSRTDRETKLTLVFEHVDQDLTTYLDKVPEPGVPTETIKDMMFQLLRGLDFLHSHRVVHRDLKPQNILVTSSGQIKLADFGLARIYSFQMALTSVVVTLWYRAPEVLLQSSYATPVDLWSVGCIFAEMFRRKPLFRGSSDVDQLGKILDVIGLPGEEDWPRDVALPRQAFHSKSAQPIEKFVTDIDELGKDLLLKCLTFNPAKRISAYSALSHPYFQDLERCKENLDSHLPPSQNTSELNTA
Chain of CDK6/CCND1 (P24385 whole entry partner): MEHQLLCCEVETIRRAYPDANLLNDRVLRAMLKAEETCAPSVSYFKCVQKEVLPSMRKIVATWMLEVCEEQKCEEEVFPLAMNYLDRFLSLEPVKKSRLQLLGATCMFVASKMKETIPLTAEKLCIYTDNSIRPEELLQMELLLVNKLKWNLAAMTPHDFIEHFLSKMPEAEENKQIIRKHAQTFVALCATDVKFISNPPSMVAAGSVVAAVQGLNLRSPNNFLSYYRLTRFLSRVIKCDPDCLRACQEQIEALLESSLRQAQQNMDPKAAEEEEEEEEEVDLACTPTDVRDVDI
Chain of CDK4/CCND3 (P11802 whole entry): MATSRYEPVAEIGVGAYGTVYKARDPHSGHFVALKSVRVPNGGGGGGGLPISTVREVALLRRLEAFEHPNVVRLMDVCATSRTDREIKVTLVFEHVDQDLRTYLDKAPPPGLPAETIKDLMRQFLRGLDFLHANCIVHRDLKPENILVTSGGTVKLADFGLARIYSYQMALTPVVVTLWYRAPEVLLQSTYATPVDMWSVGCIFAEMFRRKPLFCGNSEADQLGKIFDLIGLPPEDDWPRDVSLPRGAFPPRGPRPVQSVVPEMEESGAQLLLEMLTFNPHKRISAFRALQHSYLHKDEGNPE
Chain of CDK4/CCND3 (P30281 whole entry partner): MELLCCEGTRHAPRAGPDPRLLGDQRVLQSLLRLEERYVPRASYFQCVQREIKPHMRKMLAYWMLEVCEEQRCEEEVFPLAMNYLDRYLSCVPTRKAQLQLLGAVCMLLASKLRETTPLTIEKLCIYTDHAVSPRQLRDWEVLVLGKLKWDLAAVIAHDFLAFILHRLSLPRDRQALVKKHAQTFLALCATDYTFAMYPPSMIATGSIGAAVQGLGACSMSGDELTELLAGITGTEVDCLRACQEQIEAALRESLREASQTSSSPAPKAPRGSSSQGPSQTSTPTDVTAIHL
Chain of CDK1/CCNB1 (P06493 whole entry): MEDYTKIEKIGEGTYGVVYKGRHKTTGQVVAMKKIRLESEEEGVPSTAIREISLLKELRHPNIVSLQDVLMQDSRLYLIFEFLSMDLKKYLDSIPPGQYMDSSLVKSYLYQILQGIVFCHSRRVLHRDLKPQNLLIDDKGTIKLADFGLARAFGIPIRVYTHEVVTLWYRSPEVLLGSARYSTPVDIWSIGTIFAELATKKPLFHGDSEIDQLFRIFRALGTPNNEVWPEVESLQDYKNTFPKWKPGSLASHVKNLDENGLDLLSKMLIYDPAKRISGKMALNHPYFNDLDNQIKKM
Chain of CDK1/CCNB1 (P14635 whole entry partner): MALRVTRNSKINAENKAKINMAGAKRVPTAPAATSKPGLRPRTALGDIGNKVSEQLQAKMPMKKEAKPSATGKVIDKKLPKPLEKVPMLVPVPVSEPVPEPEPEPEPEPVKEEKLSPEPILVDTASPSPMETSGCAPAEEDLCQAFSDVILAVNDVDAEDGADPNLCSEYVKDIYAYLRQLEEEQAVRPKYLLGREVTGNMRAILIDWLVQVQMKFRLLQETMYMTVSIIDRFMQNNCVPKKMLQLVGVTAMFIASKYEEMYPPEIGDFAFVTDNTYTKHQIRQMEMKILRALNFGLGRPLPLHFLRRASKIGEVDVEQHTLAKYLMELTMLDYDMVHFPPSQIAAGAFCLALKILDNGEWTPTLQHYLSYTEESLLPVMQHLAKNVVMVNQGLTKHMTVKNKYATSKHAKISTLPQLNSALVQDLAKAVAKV

| SMILES | IC50 (CDK4/CCND3) | IC50 (CDK1/CCNB1) | IC50 (CDK2/CCNE1; [1]) | IC50 (CDK6/CCND1; [2]) | IC50 (CDK2/CCNE1; [3]) | IC50 (CDK2/CCNE1; [4]) | IC50 (CDK6/CCND1; [5]) |
| --- | --- | --- | --- | --- | --- | --- | --- |
| Cc1ccc(C#Cc2nccc3cnc(Nc4ccc(S(C)(=O)=O)cc4)cc23)c(N)n1 [Ex 581, 5-((2-amino-6-methylpyridin-3-yl)ethynyl)-N-(4-(methylsulfonyl)phenyl)-2,6-naphthyridin-3-amine] | > 250 nM | > 250 nM | 25 to 250 nM | > 250 nM |  |  |  |
| Cc1cc(C#Cc2nccc3cnc(Nc4ccc(S(C)(=O)=O)cc4)cc23)n[nH]1 [Ex 582, 5-((5-methyl-1H-pyrazol-3-yl)ethynyl)-N-(4-(methylsulfonyl)phenyl)-2,6-naphthyridin-3-amine] | > 250 nM | > 250 nM | 25 to 250 nM | > 250 nM |  |  |  |
| CS(=O)(=O)c1ccc(Nc2cc3c(C#Cc4cccnc4O)nccc3cn2)cc1 [Ex 583, 3-((7-((4-(methylsulfonyl)phenyl)amino)-2,6-naphthyridin-1-yl)ethynyl)pyridin-2(1H)-one] | > 250 nM | > 250 nM | 25 to 250 nM | > 250 nM |  |  |  |
| CS(=O)(=O)c1ccc(Nc2cc3c(C#Cc4ccc(N)nc4)nccc3cn2)cc1 [Ex 584, 5-((6-aminopyridin-3-yl)ethynyl)-N-(4-(methylsulfonyl)phenyl)-2,6-naphthyridin-3-amine] | > 250 nM | > 250 nM | 25 to 250 nM | > 250 nM |  |  |  |
| COc1cncc(C#Cc2nccc3cnc(Nc4ccc(S(C)(=O)=O)cc4)cc23)n1 [Ex 585, 5-((6-methoxypyrazin-2-yl)ethynyl)-N-(4-(methylsulfonyl)phenyl)-2,6-naphthyridin-3-amine] | > 250 nM | > 250 nM | 25 to 250 nM | > 250 nM |  |  |  |
| COc1cc(C#Cc2nccc3cnc(Nc4ccc(S(C)(=O)=O)cc4)cc23)c(F)cn1 [Ex 586, 5-((5-fluoro-2-methoxypyridin-4-yl)ethynyl)-N-(4-(methylsulfonyl)phenyl)-2,6-naphthyridin-3-amine] | > 250 nM | > 250 nM | 25 to 250 nM | > 250 nM |  |  |  |
| COC(=O)c1nc(C#Cc2nccc3cnc(Nc4ccc(S(C)(=O)=O)cc4)cc23)cnc1N [Ex 588, methyl 3-amino-6-((7-((4-(methylsulfonyl)phenyl)amino)-2,6-naphthyridin-1-yl)ethynyl)pyrazine-2-carboxylate] | > 250 nM | > 250 nM |  | > 250 nM | > 250 nM |  |  |
| Cc1ccc(C#Cc2nccc3cnc(Nc4ccc(S(C)(=O)=O)cc4)cc23)cc1C#N [Ex 589, 2-methyl-5-((7-((4-(methylsulfonyl)phenyl)amino)-2,6-naphthyridin-1-yl)ethynyl)benzonitrile] | > 250 nM | > 250 nM |  | > 250 nM | > 250 nM |  |  |
| CC(C)(O)c1ccc(C#Cc2nccc3cnc(Nc4ccc(S(C)(=O)=O)cc4)cc23)cc1 [Ex 596, 2-(4-((7-((4-(methylsulfonyl)phenyl)amino)-2,6-naphthyridin-1-yl)ethynyl)phenyl)propan-2-ol] | > 250 nM | > 250 nM | 25 to 250 nM | > 250 nM |  |  |  |
| Cc1cc2[nH]ncc2cc1-c1nccc2cnc(Nc3ccc(S(C)(=O)=O)cc3)cc12 [Ex 597, 5-(6-methyl-1H-indazol-5-yl)-N-(4-(methylsulfonyl)phenyl)-2,6-naphthyridin-3-amine] | > 250 nM | > 250 nM | 25 to 250 nM | > 250 nM |  |  |  |
| CS(=O)(=O)c1ccc(Nc2cc3c(C#Cc4cccnc4N)nccc3cn2)cc1 [Ex 598, 5-((2-aminopyridin-3-yl)ethynyl)-N-(4-(methylsulfonyl)phenyl)-2,6-naphthyridin-3-amine] | > 250 nM | > 250 nM |  | > 250 nM |  | < 25 nM |  |
| CS(=O)(=O)c1ccc(Nc2cc3c(-c4ccc5c(c4)C(=O)C(=O)N5)nccc3cn2)cc1 [Ex 600, 5-(7-((4-(methylsulfonyl)phenyl)amino)-2,6-naphthyridin-1-yl)indoline-2,3-dione] | > 250 nM | > 250 nM |  |  |  | < 25 nM | 25 to 250 nM |
| CS(=O)(=O)c1ccc(Nc2cc3c(-c4ccc5[nH]ncc5c4)nccc3cn2)cc1 [Ex 601, 5-(1H-indazol-5-yl)-N-(4-(methylsulfonyl)phenyl)-2,6-naphthyridin-3-amine] | > 250 nM | > 250 nM | 25 to 250 nM | > 250 nM |  |  |  |
| CS(=O)(=O)c1ccc(Nc2cc3c(C#Cc4ccc(O)cc4F)nccc3cn2)cc1 [Ex 602, 3-fluoro-4-((7-((4-(methylsulfonyl)phenyl)amino)-2,6-naphthyridin-1-yl)ethynyl)phenol] | > 250 nM | > 250 nM |  | > 250 nM |  | < 25 nM |  |
| CS(=O)(=O)c1ccc(Nc2cc3c(C#Cc4ccc5ncoc5c4)nccc3cn2)cc1 [Ex 604, 5-(benzo[d]oxazol-6-ylethynyl)-N-(4-(methylsulfonyl)phenyl)-2,6-naphthyridin-3-amine] | > 250 nM | > 250 nM | 25 to 250 nM | > 250 nM |  |  |  |
| COC(=O)c1n[nH]c2cc(-c3nccc4cnc(Nc5ccc(S(C)(=O)=O)cc5)cc34)ccc12 [Ex 605, methyl 6-(7-((4-(methylsulfonyl)phenyl)amino)-2,6-naphthyridin-1-yl)-1H-indazole-3-carboxylate] | > 250 nM | > 250 nM |  |  |  | < 25 nM | 25 to 250 nM |
| CS(=O)(=O)c1ccc(Nc2cc3c(C#CC4CCN(CC(=O)O)CC4)nccc3cn2)cc1 [Ex 609, 2-(4-((7-((4-(methylsulfonyl)phenyl)amino)-2,6-naphthyridin-1-yl)ethynyl)piperidin-1-yl)acetic acid] | > 250 nM | > 250 nM |  | > 250 nM |  | < 25 nM |  |
| Cc1c(-c2nccc3cnc(Nc4ccc(S(C)(=O)=O)cc4)cc23)ccc2c1cnn2C(C)(C)C(N)=O [Ex 610, 2-methyl-2-(4-methyl-5-(7-((4-(methylsulfonyl)phenyl)amino)-2,6-naphthyridin-1-yl)-1H-indazol-1-yl)propanamide] | > 250 nM | > 250 nM | 25 to 250 nM | > 250 nM |  |  |  |
| CS(=O)(=O)c1ccc(Nc2cc3c(C#Cc4cncc5[nH]ncc45)nccc3cn2)cc1 [Ex 611, 5-((1H-pyrazolo[3,4-c]pyridin-4-yl)ethynyl)-N-(4-(methylsulfonyl)phenyl)-2,6-naphthyridin-3-amine] | > 250 nM | > 250 nM | 25 to 250 nM | > 250 nM |  |  |  |
| CS(=O)(=O)c1ccc(Nc2cc3c(C#Cc4cc(Cl)n[nH]c4=O)nccc3cn2)cc1 [Ex 612, 6-chloro-4-((7-((4-(methylsulfonyl)phenyl)amino)-2,6-naphthyridin-1-yl)ethynyl)pyridazin-3(2H)-one] | > 250 nM | > 250 nM | 25 to 250 nM | > 250 nM |  |  |  |
| CS(=O)(=O)c1ccc(Nc2cc3c(C#Cc4cnc(N)nn4)nccc3cn2)cc1 [Ex 613, 5-((3-amino-1,2,4-triazin-6-yl)ethynyl)-N-(4-(methylsulfonyl)phenyl)-2,6-naphthyridin-3-amine] | > 250 nM | > 250 nM | 25 to 250 nM | > 250 nM |  |  |  |
